# In patent publication US5519038A, “N,N'-bis(alkoxyalkyl)-pyridine-2,4-dicarboxylic acid diamines” (Hoechst Aktiengesellschaft, priority 1989, dated 1996):
# Tests used:
# [1] = system: serum 7s-(IV)-collagen (proline hydroxylase and lysine hydroxylase); assay: Pharmacological activity: inhibition of serum 7s-(IV)-collagen synthesis in CCl4-treated rats; type: in vivo; conditions: versus CCl4 control
# [2] = Enteral absorbability: serum levels after intragastral administration; type: in vivo, female Wistar rats; set-up: unit not given here; conditions: 50 mg/kg perorally (intragastral), mean of 4 measurements
# Description: The absorbability was investigated on Wistar rats to which the compounds according to the invention were administered intragastrally. The serum level dropped in the first hours after administration of the substance, and after about 5 hours reached a plateau which still fell only slightly. The good absorbability of the substances can be concluded from the initially very high serum level directly after administration of the substances.
# Female Wistar rats of about 150 g body weight are given an intragastral administration of 50 mg/kg of the substance under investigation by means of a stomach probe.
# In each case 4 rats are anesthetized after 5; 10; 15; 30; 60; 120; 180 and 240 minutes and exsanguinated via the Vena Cava. The blood is centrifuged immediately and the compound administered is extracted from the serum using ether. After the ether has been evaporated, the residue is taken up in […] of mobile phase. The mobile phase consists of 0.05M phosphoric acid and acetonitrile (4:1). 50 μl of this sample are injected into a high performance liquid chromatography column. Detection is performed under UV of 200 nm with a retention time of 2.2 minutes.
# [3] = system: liver hydroxyproline (proline hydroxylase and lysine hydroxylase); assay: Pharmacological activity: inhibition of liver hydroxyproline synthesis in CCl4-treated rats; type: in vivo; conditions: versus CCl4 control
# [4] = system: Clq biosynthesis of macrophages; conditions: in words; W. Muller et al., 1978; cited from earlier work
# proline hydroxylase [5] = conditions: in words; Tschank, G. et al., 1987; cited from earlier work
# proline hydroxylase [6] = conditions: in words; K. Majamaa et al., 1984; cited from earlier work
# [7] = 120 minutes, DL = detection limit
compound,measurement,setting,value
"COCCCNC(=O)c1ccnc(C(=O)NCCCOC)c1 [Example 1, Pyridine-2,4-dicarboxylic acid bis-N,N'-(methoxypropyl) amide]",Serum 7s-(IV)-collagen [% inhibition],"[1]; 2 × 2 mg, p.o.",28 % inhibition
same,Serum 7s-(IV)-collagen [% inhibition],"[1]; 2 × 10 mg, p.o.",67 % inhibition
same,"Serum level (x, SD)",[2]; 5 minutes,45.3 ± 15.4
same,"Serum level (x, SD)",[2]; 10 minutes,49.8 ± 3.6
same,"Serum level (x, SD)",[2]; 15 minutes,39.9 ± 11.0
same,"Serum level (x, SD)",[2]; 30 minutes,28.1 ± 3.2
same,"Serum level (x, SD)",[2]; 60 minutes,9.4 ± 5.5
same,"Serum level (x, SD)",[2]; [7],0.3 ± 0.3
same,Liver hydroxyproline [% inhibition],"[3]; 2 × 2 mg, p.o.",62 % inhibition
same,Liver hydroxyproline [% inhibition],"[3]; 2 × 10 mg, p.o.",90 % inhibition
"c1ccc(-c2ccccn2)nc1 [α, α'-dipyridyl]",Inhibition of Clq biosynthesis of macrophages,[4],leads to an inhibition of the Clq biosynthesis of macrophages
"CCOCCCNC(=O)c1ccnc(C(=O)NCCCOCC)c1 [Example 2, Pyridine-2,4-dicarboxylic acid bis-N,N'-(ethoxypropyl)amide]",Serum 7s-(IV)-collagen [% inhibition],"[1]; 2 × 2 mg, p.o.",2 % inhibition
same,Serum 7s-(IV)-collagen [% inhibition],"[1]; 2 × 10 mg, p.o.",35 % inhibition
same,"Serum level (x, SD)",[2]; 5 minutes,51.4 ± 11.2
same,"Serum level (x, SD)",[2]; 10 minutes,39.2 ± 4.0
same,"Serum level (x, SD)",[2]; 15 minutes,29.4 ± 6.7
same,"Serum level (x, SD)",[2]; 30 minutes,15.2 ± 5.6
same,"Serum level (x, SD)",[2]; 60 minutes,1.4 ± 1.0
same,Liver hydroxyproline [% inhibition],"[3]; 2 × 2 mg, p.o.",25 % inhibition
same,Liver hydroxyproline [% inhibition],"[3]; 2 × 10 mg, p.o.",60 % inhibition
"O=C(O)c1ccc(C(=O)O)nc1 [pyridine-2,5-dicarboxylic acid]",Activity as inhibitors in the cell culture,proline hydroxylase [5],effective as inhibitors only in very high concentrations
same,Inhibition of proline hydroxylase,proline hydroxylase [6],inhibited effectively
"COCCNC(=O)c1ccnc(C(=O)NCCOC)c1 [19 (from SA-88-0896), N,N'-bis(2-methoxyethyl)-pyridine-2,4-dicarboxylic acid diamide, reference compound]",Serum 7s-(IV)-collagen [% inhibition],"[1]; 2 × 25 mg, i.p.",48 % inhibition
same,Liver hydroxyproline [% inhibition],"[3]; 2 × 25 mg, i.p.",55 % inhibition
"O=C(O)c1ccnc(C(=O)O)c1 [pyridine-2,4-dicarboxylic acid]",Activity as inhibitors in the cell culture,proline hydroxylase [5],effective as inhibitors only in very high concentrations
same,Inhibition of proline hydroxylase,proline hydroxylase [6],inhibited effectively
"COC(CNC(=O)c1ccnc(C(=O)NCC(OC)OC)c1)OC [Example 3, Pyridine-2,4-dicarboxylic acid bis-N,N'-(2-dimethoxyethyl) amide]","Serum level (x, SD)",[2]; 5 minutes,8.9 ± 3.1
same,"Serum level (x, SD)",[2]; 10 minutes,11.5 ± 0.6
same,"Serum level (x, SD)",[2]; 15 minutes,14.7 ± 1.9
same,"Serum level (x, SD)",[2]; 30 minutes,10.7 ± 1.9
same,"Serum level (x, SD)",[2]; 60 minutes,11.3 ± 1.5
same,"Serum level (x, SD)",[2]; [7],5.5 ± 0.9
same,"Serum level (x, SD)","[2]; 180 minutes, DL = detection limit",2.9 ± 0.5
same,"Serum level (x, SD)","[2]; 240 minutes, DL = detection limit",1.7 ± 0.4
"CC(C)OCCCNC(=O)c1ccnc(C(=O)NCCCOC(C)C)c1 [20 (from SA-88-0896), N,N'-bis(3-isopropoxypropyl)-pyridine-2,4-dicarboxylic acid diamide, reference compound]",Serum 7s-(IV)-collagen [% inhibition],"[1]; 2 × 25 mg, p.o.",11 % inhibition
same,Liver hydroxyproline [% inhibition],"[3]; 2 × 25 mg, p.o.",49 % inhibition
